One test has as its target Coagulation factor IX (Homo sapiens, UniProt P00740). The test is described as follows: Inhibitory constant against human purified Coagulation factor IXa (fIXa).
Another test addresses Coagulation factor X (Homo sapiens, UniProt P00742). Put plainly: Inhibitory constant against human purified Coagulation factor Xa (fXa).
For another test, the target named is Prothrombin (Homo sapiens, UniProt P00734). Put plainly: Inhibitory constant against human thrombin.
In the next test the target is Trypsin (Homo sapiens, UniProt P07477+P07478+P35030). The test is described as follows: Inhibitory constant against human trypsin. The test is classed as protein assay.

Sequence of Coagulation factor IX (P00740 47-191 limits assumed): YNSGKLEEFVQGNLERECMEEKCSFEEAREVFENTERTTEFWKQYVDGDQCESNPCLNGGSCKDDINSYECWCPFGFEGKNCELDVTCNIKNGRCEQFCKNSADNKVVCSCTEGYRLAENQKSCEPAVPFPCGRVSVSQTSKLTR
Sequence of Coagulation factor IX (P00740 227-461 limits assumed): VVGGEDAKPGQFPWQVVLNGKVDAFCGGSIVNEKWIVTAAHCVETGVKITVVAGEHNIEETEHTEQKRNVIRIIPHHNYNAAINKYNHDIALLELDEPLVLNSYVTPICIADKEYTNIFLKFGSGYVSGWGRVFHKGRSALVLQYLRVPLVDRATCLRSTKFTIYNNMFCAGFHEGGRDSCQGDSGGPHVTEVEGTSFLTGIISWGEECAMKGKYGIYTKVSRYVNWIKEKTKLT
Sequence of Coagulation factor X (P00742 41-179 limits assumed): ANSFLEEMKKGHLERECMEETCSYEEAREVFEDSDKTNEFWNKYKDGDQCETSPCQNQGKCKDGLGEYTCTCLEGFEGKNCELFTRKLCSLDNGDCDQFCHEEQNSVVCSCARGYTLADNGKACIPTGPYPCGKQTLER
Sequence of Coagulation factor X (P00742 235-488 limits assumed): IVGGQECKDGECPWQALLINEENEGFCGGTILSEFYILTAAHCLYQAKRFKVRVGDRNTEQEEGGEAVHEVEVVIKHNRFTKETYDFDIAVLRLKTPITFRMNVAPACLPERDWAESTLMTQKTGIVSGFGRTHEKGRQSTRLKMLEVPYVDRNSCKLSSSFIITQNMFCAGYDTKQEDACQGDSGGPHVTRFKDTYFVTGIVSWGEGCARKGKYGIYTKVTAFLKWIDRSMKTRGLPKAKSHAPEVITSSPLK

In general, Ki refers to the equilibrium dissociation constant of an inhibitor or competing ligand from its target. Low values mean tighter binding, high ones weaker binding. Turning to `Cc1ccc(F)cc1NC(=O)C(Cc1ccccc1)c1csc2ccc(C(=N)N)cc12` (centres undefined), the Ki at Coagulation factor IX is 0.96 µM; at Coagulation factor X it was above 8 µM.

In the case of `N=C(N)c1ccc2scc(C(Cc3cccc4ccccc34)C(=O)Nc3ccc(-n4cnc5ccccc54)cc3)c2c1.O=C(O)C(F)(F)F` (centres undefined), the Ki at Prothrombin is above 6.3 µM; at Coagulation factor IX, 0.23 µM; at Coagulation factor X it was 0.74 µM; at Trypsin, 3.9 µM.

Consider `CCOC(=O)[C@@H]1CCCCC1NC(=O)C(Cc1ccccc1)c1coc2ccc(C(=N)N)cc12` (some centres undefined), for which the Ki at Coagulation factor IX was 1.19 µM; at Coagulation factor X, 0.27 µM; on Trypsin it was above 4.2 µM.

With `CCOC(=O)[C@@H]1CCCCC1NC(=O)[C@@H](Cc1ccccc1)c1cccc2ccc(C(=N)N)cc12` (some centres undefined), the Ki was 0.24 µM on Coagulation factor IX, 0.53 µM at Coagulation factor X and above 4.2 µM at Trypsin.

Take `CCOC(=O)[C@@H]1CCCCC1NC(=O)C(Cc1ccccc1)C1=CS(=O)(=O)c2ccc(C(=N)N)cc21` (some centres undefined): the results for the Ki at Coagulation factor IX, on Coagulation factor X and at Trypsin were 8.53 µM, above 9 µM and above 4.2 µM, respectively.

In the case of `COC(=O)[C@H]1CCCCC1NNC(=O)[C@@H](Cc1ccccc1)c1csc2ccc(C(=N)N)cc12` (some centres undefined), the figures for the Ki on Coagulation factor IX and on Coagulation factor X were 41.3 µM and above 9 µM, respectively.

As to `N=C(N)c1ccc2scc(C(Cc3ccccc3)C(=O)Nc3ccc4ncsc4c3)c2c1` (centres undefined), the Ki at Coagulation factor IX was 0.78 µM; on Coagulation factor X, above 8 µM.

As to `CC1CCC(NC(=O)C(Cc2ccccc2)c2csc3ccc(C(=N)N)cc23)CC1` (centres undefined), the Ki on Coagulation factor IX was determined as 0.58 µM; at Coagulation factor X, 3.24 µM.

As for `N#Cc1ccc(NC(=O)C(Cc2ccccc2)c2csc3ccc(C(=N)N)cc23)cc1` (centres undefined), the Ki on Coagulation factor IX was 1.73 µM; at Coagulation factor X, above 8 µM.

With `CCOC(=O)[C@@H]1CCCCC1NC(=O)[C@@H](Cc1ccccc1)c1csc2ccc(C(=N)N)cc12` (some centres undefined), the Ki on Coagulation factor IX worked out at 0.12 µM; at Coagulation factor X, 0.18 µM.

For `N=C(N)c1ccc2scc(C(Cc3ccc(N)cc3)C(=O)Nc3ccc(-n4cnc5ccccc54)cc3)c2c1.O=C(O)C(F)(F)F` (centres undefined), the Ki at Prothrombin is 4.2 µM; at Coagulation factor IX, 0.074 µM; on Coagulation factor X, 0.047 µM; at Trypsin, above 4.2 µM.

As to `N=C(N)c1ccc2scc(C(CC(=O)Nc3ccc(-n4cnc5ccccc54)cc3)Cc3ccccc3)c2c1.O=C(O)C(F)(F)F` (centres undefined), the inhibition constant (Ki) at Prothrombin is 4.2 µM; on Coagulation factor IX, 1.25 µM; on Coagulation factor X, 0.28 µM; on Trypsin, above 4.2 µM.

Take `N=C(N)c1ccc2scc(C(Cc3ccccc3)C(=O)Nc3ccc(S(=O)(=O)Nc4ccc(Cl)nn4)cc3)c2c1` (centres undefined): the Ki on Coagulation factor IX came out at 0.93 µM; on Coagulation factor X, 5.36 µM.

As to `N=C(N)c1ccc2scc([C@H](Cc3ccccc3)C(=O)NC3CCCC[C@H]3C(=O)NCC(N)=O)c2c1` (some centres undefined), the values for the Ki on Coagulation factor IX and on Coagulation factor X were 0.28 µM and 0.065 µM, respectively.

With `N=C(N)c1ccc2[nH]cc(C(Cc3ccccc3)C(=O)Nc3ccc(-c4ccccc4S(N)(=O)=O)cc3)c2c1` (centres undefined), the Ki came out at 0.6 µM at Prothrombin and 0.15 µM at Trypsin.

Consider `N=C(N)c1ccc2scc(C(Cc3ccccc3)C(=O)Nc3ccc(-n4cnc5ccccc54)cc3)c2c1.O=C(O)C(F)(F)F` (centres undefined), for which the Ki is above 6.3 µM on Prothrombin, 0.098 µM on Coagulation factor IX, 0.12 µM on Coagulation factor X and 1.02 µM at Trypsin.

Take `COC(=O)[C@@H]1CCCCC1NC(=O)C(Cc1ccccc1)c1c[nH]c2ccc(C(=N)N)cc12` (some centres undefined): the Ki at Coagulation factor IX came out at 0.34 µM; at Coagulation factor X it was 0.019 µM; at Trypsin it was 1.5 µM.

As for `CCNC(=O)[C@@H]1CCCCC1NC(=O)[C@@H](Cc1ccccc1)c1csc2ccc(C(=N)N)cc12` (some centres undefined), the Ki turned out to be 0.43 µM on Coagulation factor IX and 0.13 µM at Coagulation factor X.

As for `N=C(N)c1ccc2scc(C(Cc3ccccc3)C(=O)Nc3ccc4ncsc4c3)c2c1` (single isomer, unassigned), the values for the Ki at Coagulation factor IX and at Coagulation factor X were 14.2 µM and 5.7 µM, respectively.

In the case of `N=C(N)c1ccc2scc([C@H](Cc3ccccc3)C(=O)NC3CCCC[C@H]3C(=O)NCc3ccccc3)c2c1` (some centres undefined), the Ki was above 32 µM on Coagulation factor IX and above 9 µM at Coagulation factor X.

With `COC(=O)[C@H]1CCCCC1NNC(=O)[C@H](Cc1ccccc1)c1csc2ccc(C(=N)N)cc12` (some centres undefined), the Ki at Coagulation factor IX is 0.28 µM; on Coagulation factor X, 0.27 µM.

Consider `N=C(N)c1ccc2[nH]cc(C(Cc3ccccc3)C(=O)Nc3ccc(-n4cnc5ccccc54)cc3F)c2c1.O=C(O)C(F)(F)F` (centres undefined), for which the Ki on Prothrombin is 13 µM; on Trypsin it was 0.34 µM.

With `COC(=O)[C@H]1CCCCC1NNC(=O)C(Cc1ccccc1)c1csc2ccc(C(=N)N)cc12` (some centres undefined), the Ki on Coagulation factor IX amounted to 0.31 µM; on Coagulation factor X it was 0.3 µM.

Consider `N=C(N)c1ccc2[nH]cc(C(Cc3ccc(N)cc3)C(=O)Nc3ccc(-n4cnc5ccccc54)cc3)c2c1.O=C(O)C(F)(F)F` (centres undefined), for which the Ki on Prothrombin was 4.2 µM; at Trypsin it was above 4.2 µM.

Take `N=C(N)c1ccc2scc(C(Cc3ccccc3)C(=O)Nc3ccc(-n4ccc(C(F)(F)F)n4)cc3)c2c1` (centres undefined): the Ki at Coagulation factor IX turned out to be 0.13 µM; at Coagulation factor X, 0.41 µM.

As for `N=C(N)c1ccc2scc(C(Cc3ccccc3)C(=O)Nc3ccc(Oc4ccccc4)cc3)c2c1` (centres undefined), the Ki on Coagulation factor IX worked out at 0.25 µM; on Coagulation factor X, 0.45 µM.

For the compound `COC(=O)[C@@H]1CCCCC1NNC(=O)C(Cc1ccccc1)c1csc2ccc(C(=N)N)cc12` (some centres undefined), the Ki on Coagulation factor IX is 0.5 µM; on Coagulation factor X it was 0.09 µM.

On to `N=C(N)c1ccc2scc(C3(C(=O)Nc4ccc(-n5cnc6ccccc65)cc4)CC3)c2c1.O=C(O)C(F)(F)F`, for which the Ki at Prothrombin came to 0.39 µM; on Coagulation factor IX, 4.9 µM; at Coagulation factor X it was 0.022 µM; at Trypsin it was 0.06 µM.

As to `COC(=O)[C@@H]1CCCCC1NC(=O)[C@@H](Cc1ccccc1)c1csc2ccc(C(=N)N)cc12` (some centres undefined), the Ki at Coagulation factor IX was 0.14 µM; on Coagulation factor X, 0.12 µM.

Take `N=C(N)c1ccc2scc(C(Cc3ccccc3)C(=O)Nc3ccc(-n4cnc(-c5ccccc5)c4)cc3)c2c1.O=C(O)C(F)(F)F` (centres undefined): the Ki at Prothrombin was above 6.3 µM; at Coagulation factor IX, 0.39 µM; at Coagulation factor X it was 2.02 µM; on Trypsin, above 4.2 µM.

Take `N=C(N)c1ccc2scc([C@@H](Cc3ccccc3)C(=O)Nc3ccc4ncsc4c3)c2c1`: the Ki at Coagulation factor IX turned out to be 0.48 µM; on Coagulation factor X it was 2.7 µM.

As to `CCC(C(=O)Nc1ccc(-n2cnc3ccccc32)cc1)c1csc2ccc(C(=N)N)cc12.O=C(O)C(F)(F)F` (centres undefined), the Ki at Prothrombin is above 0.27 µM; at Coagulation factor IX, 0.22 µM; on Coagulation factor X, 0.071 µM; on Trypsin, 0.27 µM.

For `N=C(N)c1ccc2scc([C@H](Cc3ccccc3)C(=O)NC3CCCC[C@H]3C(=O)O)c2c1` (some centres undefined), the Ki at Coagulation factor IX worked out at 3.5 µM; at Coagulation factor X, 0.2 µM.

For the origin of these results see ChEMBL document CHEMBL1145227, “5-Amidinobenzo[b]thiophenes as dual inhibitors of factors IXa and Xa” (Bioorg Med Chem Lett, 2005).
